Tests used:
enucleated human oocytes = assay: Activation and polar body extrusion after transfer of a mitotic somatic genome; type: cell-based
Method: We next sought to determine the timing and molecular mechanism of these chromosomal abnormalities. We reasoned that if the removal of the oocyte spindle removed essential components, then these defects should be apparent at the second meiotic division. We removed the oocyte spindle-chromosome complex, and transferred the mitotic genome of a somatic cell that had been collected upon treatment with nocodazole and were kept on ice prior to transfer (FIG. 12A). Remarkably, within 1-2 hours post transfer, birefringent spindles were assembled in oocytes and chromosomes were aligned on the metaphase plate (FIGS. 12A, 12B, 12C). Upon artificial activation using a calcium ionophore and puromycin, 16/19 oocytes segregated somatic cell chromatin into a polar body and formed a single pronucleus in the activated oocyte (FIG. 12F-I). And like upon segregation of oocyte chromatin, a midbody formed and the chromosome passenger complex component survivin localized to the midbody (FIG. 12E). To examine the accuracy of chromosome segregation, (pseudo-) polar bodies were biopsied and the karyotype determined using nucleotide polymorphism arrays. […] However, when we analyzed the karyotype of blastomeres using nucleotide arrays, we found a large number of karyotypic abnormalities (FIG. 12I-L). […]

human oocytes = assay: Development of human somatic cell nuclear transfer oocytes beyond the cleavage stage; type: cell-based
Method: Oocytes were enucleated using microtubule birefringence (Oosight) as described previously by Noggle et al., 2011. Nuclear transfer was performed by fusion of somatic cells to oocytes using inactivated Sendai virus diluted 1:10 to 1:20 in suspension medium. Fusion was confirmed visually. 1-3 hours post fusion, oocytes were activated using 3 μM ionomycin in Global total for 5 minutes at 37 degrees celsius, followed by culture in 10 μM puromycin, 2 mM 6-DMAP, as well as the histone deacetylase (HDAC) inhibitors scriptaid and nch51 for 4 to 4.5 hours. Activated constructs were cultured in HDAC inhibitor for an additional 10-16 hours, followed by culture in Global total only. Culture was performed in a MINC incubator fed with gas containing 6% CO2, 5% oxygen and 89% nitrogen. Calcium-free medium was used for some of the manipulations resulting in nuclear transfer ES cells.
For some of the experiments described above additional modifications were introduced as described in Tachibana et al., 2013. Caffeine at a 1 mM concentration was added to the incubation medium during enucleation and oocyte fusion. Oocytes were activated using 2-4 pulses of 50 μs width at 2.7 kV/cm in mannitol containing fusion medium using an LF201 pulser (Nepagene), followed by 4 hours of culture in 2 mM 6-DMAP. Activated constructs were cultured in Global total containing 10% FBS and TSA for 12 hours, followed by culture to the blastocysts stage in medium containing 10% FBS.
The derivation of nuclear transfer ES cell lines from BJ fibroblasts at passage 11 was performed using nuclear transfer 30 min prior to the removal of the oocyte genome in the presence of 1 mM caffeine. Derivation of the adult cell NT-ES cell line was performed using somatic cells at passage 8, from a subject with T1D (ID-1018). Oocytes were transported in GMOPSplus containing 1 mM caffeine. Upon completion of the manipulation, oocytes were incubated for 45 min-1 h in calcium-free MCZB, then placed in calcium containing medium for 10 min prior to activation and culture as described above. Oocyte activation was performed within 2 hours post transfer using 4 electrical pulses, followed by incubation in medium containing HDAC inhibitors scriptaid and nch51, in addition to 10 μg/ml puromycin and 2 mM 6-DMAP for 4 hours, and thereafter, medium containing HDAC inhibitor for 15 hours. Culture was performed in a Heracell 150i incubator containing 5% CO2 at 37° C., in Global medium (IVFonline LGGG-050) containing 10% fetal bovine serum. ES cell derivation was conducted in medium containing DMEM/F12 supplemented with 10% KO-SR and 10% FBS, Rock inhibitor Y-27632, thiazovivin, non-essential amino acids, 10 ng/ml bFGF, Glutamax, and beta mercaptoethanol (all reagents from Life Technologies). Upon attachment, trophectoderm cells were ablated using laser pulses using a Lykos laser (Hamilton Thorne). Outgrowths were apparent within 10 days of plating, and were picked when colonies reached a size of about 1 mm in diameter. Passaging was done enzymatically using TrpLE (Life Technologies) and standard ES cell medium (substituting FBS with KO-SR and DMEM/F12 with KO-DMEM) using Rock inhibitor Y-27632 for the first day after plating.

oocytes = conditions: oocyte activation with puromycin versus 6-dmap; cited from earlier work
enucleated mouse oocytes = assay: Chromosome segregation at the first mitosis after nuclear transfer; type: cell-based
Excerpt: To further investigate the mechanism of genomic instability after somatic cell nuclear transfer, we transferred genomes of somatic and embryonic mouse cells into enucleated mouse oocytes. As a control for our manipulations, we transplanted oocyte genomes from one MII oocyte to another. We first quantified the number of abnormal anaphase figures in unmanipulated oocytes, including bridges, fragments, and missegregating chromosomes. Abnormalities in parthenotes were few, or less than 5 percent at anaphase of the second meiosis and the first mitosis (FIG. 13A). […] Upon transfer of mitotic fibroblast or ES cell genomes into MII oocytes, the frequency of these abnormalities remained unaltered, or 6% and 6.9%. […] Abnormal anaphase figures were further increased when using interphase genomes of either cumulus cells or T cells.
As different cell types are known to differ in their gene expression pattern, we first determined whether gene expression during the first cell cycle was required for a normal chromosome segregation at the first embryonic mitosis. […] As cell-type specific gene expression appeared to be irrelevant to chromosome segregation at the first mitosis, we investigated whether other cell-type specific properties of the genome were of importance. It appeared conceivable that for normal chromosome segregation, the prior duplication of the genome at interphase must also be normal. To distinguish whether the chromosome segregation we observed were due to abnormal spindle attachment to chromosomes or due to structural deficiencies that can arise during DNA replication, we stained anaphases with antibodies recognizing centromeres. […]
To determine whether other parameters known to affect the developmental efficiency after somatic cell nuclear transfer affected the fidelity of segregation at the first mitosis, we investigated the role of the nuclear structure. […] We transferred somatic nuclei within the first hour post activation, and analyzed chromosome segregation at the first mitosis. […]

[1] = enucleated oocytes, agent used at activation / first 17 hours of embryo culture

COc1ccc(C[C@H](N)C(=O)N[C@H]2[C@@H](O)[C@H](n3cnc4c(N(C)C)ncnc43)O[C@@H]2CO)cc1 [puromycin]
oocytes segregating somatic chromatin into a polar body and forming a single pronucleus (enucleated human oocytes; activation with a calcium ionophore and puromycin): 16/19 | oocyte activation shown by polar body extrusion (enucleated human oocytes; puromycin for 4 hours without meiotic kinase inhibitor, M-phase somatic genome): efficient polar body extrusion | development after somatic cell nuclear transfer (human oocytes; [1]): development still arrested at cleavage stages | development after somatic cell nuclear transfer (human oocytes; oocyte genome not removed, puromycin for oocyte activation): efficient development to the blastocyst stage | efficiency of parthenogenesis (oocytes): more efficient

CC[C@H](C)[C@@H]1NC(=O)CNC(=O)[C@@H]2Cc3c([nH]c4cc(O)ccc34)[S+]([O-])C[C@@H](NC(=O)CNC1=O)C(=O)N[C@@H](CC(N)=O)C(=O)N1C[C@H](O)C[C@H]1C(=O)N[C@@H]([C@@H](C)[C@@H](O)CO)C(=O)N2 (stereo partly drawn) [alpha amanitin]
frequency of normal mitotic figures (enucleated mouse oocytes; added to culture medium during first cell cycle): did not significantly increase

CN(C)c1ncnc2nc[nH]c12 [6-dmap, 6-(dimethylamino)purine]
dividing embryos severely abnormal (enucleated mouse oocytes; somatic nuclei transferred within first hour after activation and kinase inhibition with 6-dmap): 90%

O=C(CCCCCN1C(=O)c2cccc3cccc(c23)C1=O)NO [scriptaid, 6-(1,3-Dioxo-1H,3H-benzo[de]isoquinolin-2-yl)-hexanoic acid hydroxyamide]
development after somatic cell nuclear transfer (human oocytes; [1]): development to the morula and blastocyst stage at a low frequency | frequency of chromosome segregation errors (enucleated mouse oocytes; first mitosis): decreased the frequency of chromosome segregation errors

Cn1c(=O)c2c(ncn2C)n(C)c1=O [caffeine]
efficiency and quality of blastocysts (human oocytes; caffeine also during oocyte transport, calcium omitted from manipulation medium): most efficient and high quality blastocyts | blastocyst development (human oocytes; electrical pulse for activation and caffeine during oocyte manipulation): 10%
